23 compounds from patent US20130165641A1, “6,11-BRIDGED BIARYL MACROLIDES” (Enanta Pharmaceuticals, Inc., priority 2007, published 2013) can be followed below.

In one test the test system is H. influenzae. Briefly: MIC by micro-dilution method, H. influenzae isolates. Format: cell-based, Haemophilus influenzae. The conditions noted are these: for MIC H. influenzae 33929: H. influenzae isolate 33929; for MIC H. influenzae 33929 / MIC H. influenzae 49247: examples of U.S. Pat. No. 6,878,691 for reference; for MIC H. influenzae 49247: H. influenzae isolate 49247. Here is the method: Susceptibility tests can be used to quantitatively measure the in vitro activity of an antimicrobial agent against a given bacterial isolate. Compounds are tested for in vitro antibacterial activity by a micro-dilution method. Minimal Inhibitory Concentration (MIC) is determined in 96 well microtiter plates utilizing the appropriate broth medium for the observed bacterial isolates. […] The diluted compounds (2 μl/well) are then transferred into sterile, uninoculated medium (0.2 mL) by use of a 96 fixed tip-pipetting station. The inoculum for each bacterial strain is standardized to approximately 5×10^5 CFU/mL by optical comparison to a 0.5 McFarland turbidity standard. The plates are inoculated with 10 μl/well of adjusted bacterial inoculum. The 96 well plates are covered and incubated at 35+/−2° C. for 24 hours in ambient air environment. Following incubation, plate wells are visually examined by Optical Density measurement for the presence of growth (turbidity). The lowest concentration of an antimicrobial agent at which no visible growth occurs is defined as the MIC.
All in vitro testing follows the guidelines described in the Approved Standards M7-A7 protocol, published by the Clinical Laboratory Standards Institute (CLSI).
(In broth dilution the organism is exposed to a series of concentrations in liquid medium.)

The test system of another test is MRSA. Briefly: MIC by micro-dilution method, MRSA isolates. The conditions noted are these: MRSA isolate 33591; examples of U.S. Pat. No. 6,878,691 for reference. Format: cell-based, Staphylococcus aureus. The gist of the method: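 CLSI M7-A7 broth microdilution with inoculum about 5×10^5 CFU/mL, in broth suited to each isolate. Plates incubated 24 h at 35±2 °C in ambient air. MIC is the lowest concentration without visible growth, judged by optical density.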

Converted amounts (≈) assume the structure as drawn. Some results are limits rather than exact numbers.

Regarding `CC[C@H]1OC(=O)[C@H](C)C(=O)[C@H](C)[C@@H](O[C@@H]2O[C@H](C)C[C@H](N(C)C)[C@H]2O)[C@@]2(C)C[C@@H](C)C(=NC(C)=O)[C@H](C)[C@@H](OC/C(=N\OCc3ccc(-c4nccs4)nc3)CO2)[C@]1(C)O` [Compound 212, reference compound], in the test on H. influenzae, the “MIC H. influenzae 33929” value was found to be 4 µg/mL (≈ 4.66 µM) and the “MIC H. influenzae 49247” value came out at 8 µg/mL (≈ 9.32 µM). Besides, the “MIC MRSA 33591” value with MRSA was determined as 64 µg/mL (≈ 74.6 µM).
In the same order, the values of `CC[C@H]1OC(=O)[C@@](C)(F)C(=O)[C@H](C)[C@@H](O[C@@H]2O[C@H](C)C[C@H](N(C)C)[C@H]2O)[C@@]2(C)C[C@@H](C)C(=NC(C)=O)[C@H](C)[C@@H](OC/C(=N\OCc3ccc(-c4cccc(N)n4)s3)CO2)[C@]1(C)O` [Compound 173, reference compound] are 4 µg/mL (≈ 4.49 µM), 4 µg/mL (≈ 4.49 µM) and 4 µg/mL (≈ 4.49 µM).
In the same order, the values of `CC[C@H]1OC(=O)[C@H](C)C(=O)[C@H](C)[C@@H](O[C@@H]2O[C@H](C)C[C@H](N(C)C)[C@H]2O)[C@@]2(C)C[C@@H](C)C(=NC(C)=O)[C@H](C)[C@@H](OC/C(=N\OCc3ccc(-c4nnc(N)s4)nc3)CO2)[C@]1(C)O` [Compound 234, reference compound] are 4 µg/mL (≈ 4.58 µM), 4 µg/mL (≈ 4.58 µM) and greater than 64 µg/mL.
Taken in the same sequence, the figures for `CC[C@H]1OC(=O)[C@H](C)C(=O)[C@H](C)[C@@H](O[C@@H]2O[C@H](C)C[C@H](N(C)C)[C@H]2O)[C@@]2(C)C[C@@H](C)C(=NC(C)=O)[C@H](C)[C@@H](OC/C(=N\OCc3ccc(-c4cccs4)nc3)CO2)[C@]1(C)O` [Compound 205, reference compound] were 4 µg/mL (≈ 4.67 µM), 8 µg/mL (≈ 9.33 µM) and greater than 64 µg/mL.
Turning to `CC[C@H]1OC(=O)[C@@](C)(F)C(=O)[C@H](C)[C@@H](O[C@@H]2O[C@H](C)C[C@H](N(C)C)[C@H]2O)[C@@]2(C)C[C@@H](C)C(=NC(C)=O)[C@H](C)[C@@H](OC/C(=N\OCc3ccc(-c4cnccn4)s3)CO2)[C@]1(C)O` [Compound 141, reference compound], in the test with H. influenzae, the “MIC H. influenzae 33929” value worked out at 8 µg/mL (≈ 9.13 µM) and the “MIC H. influenzae 49247” value was 8 µg/mL (≈ 9.13 µM). The “MIC MRSA 33591” value against MRSA was 32 µg/mL (≈ 36.5 µM).
Take `CC[C@H]1OC(=O)[C@H](C)C(=O)[C@H](C)[C@@H](O[C@@H]2O[C@H](C)C[C@H](N(C)C)[C@H]2O)[C@@]2(C)C[C@@H](C)C(=NC(C)=O)[C@H](C)[C@@H](OC/C(=N\OCc3cnc(-n4cccn4)c(F)c3)CO2)[C@]1(C)O` [Compound 259, reference compound]: in the test with H. influenzae, the “MIC H. influenzae 33929” value was 8 µg/mL (≈ 9.31 µM) and the “MIC H. influenzae 49247” value amounted to 8 µg/mL (≈ 9.31 µM). In addition, the “MIC MRSA 33591” value against MRSA was greater than 64 µg/mL.
As for `CCNC(=O)c1cccc(-c2cc(CO/N=C3\CO[C@@H]4[C@@H](C)C(=NC(C)=O)[C@H](C)C[C@@](C)(OC3)[C@H](O[C@@H]3O[C@H](C)C[C@H](N(C)C)[C@H]3O)[C@@H](C)C(=O)[C@@H](C)C(=O)O[C@H](CC)[C@@]4(C)O)on2)n1` [Compound 195, reference compound], in the test on H. influenzae, the “MIC H. influenzae 33929” value was 32 µg/mL (≈ 35 µM) and the “MIC H. influenzae 49247” value worked out at 32 µg/mL (≈ 35 µM). Besides, the “MIC MRSA 33591” value with MRSA was greater than 64 µg/mL.
Regarding `CC[C@H]1OC(=O)[C@H](C)C(=O)[C@H](C)[C@@H](O[C@@H]2O[C@H](C)C[C@H](N(C)C)[C@H]2O)[C@@]2(C)C[C@@H](C)C(=NC(C)=O)[C@H](C)[C@@H](OC/C(=N\OCc3ccc(-c4ncccn4)cc3)CO2)[C@]1(C)O` [Compound 193, reference compound], in the test with H. influenzae, the “MIC H. influenzae 33929” value is 8 µg/mL (≈ 9.39 µM) and the “MIC H. influenzae 49247” value worked out at 8 µg/mL (≈ 9.39 µM). In the test with MRSA, the “MIC MRSA 33591” value is 64 µg/mL (≈ 75.1 µM).
`CCC1OC(=O)C(C)C(=O)C(C)C(OC2OC(C)CC(N(C)C)C2O)C2(C)CC(C)C(=O)C(C)C(OCC(=NOCc3ccc(-c4nsc(N)n4)cn3)CO2)C1(C)O` (stereo not drawn) [Example 35]: the MIC in the test on H. influenzae (H. influenzae 33929) and in the test with H. influenzae (H. influenzae 49247) was 2 µg/mL (≈ 2.4 µM) each time.
Consider `CC[C@H]1OC(=O)[C@@](C)(F)C(=O)[C@H](C)[C@@H](O[C@@H]2O[C@H](C)C[C@H](N(C)C)[C@H]2O)[C@@]2(C)C[C@@H](C)C(=NC(C)=O)[C@H](C)[C@@H](OC/C(=N\OCc3ccc(-n4cccn4)nc3)CO2)[C@]1(C)O` [Compound 214, reference compound], for which, in the test with H. influenzae, the “MIC H. influenzae 33929” value came to 4 µg/mL (≈ 4.66 µM) and the “MIC H. influenzae 49247” value amounted to 8 µg/mL (≈ 9.31 µM). For the same compound, the “MIC MRSA 33591” value in the test on MRSA turned out to be 64 µg/mL (≈ 74.5 µM).
In the same order, the values of `CC[C@H]1OC(=O)[C@H](C)C(=O)[C@H](C)[C@@H](O[C@@H]2O[C@H](C)C[C@H](N(C)C)[C@H]2O)[C@@]2(C)C[C@@H](C)C(=NC(C)=O)[C@H](C)[C@@H](OC/C(=N\OCc3ccc(-c4cccc(N)n4)nc3)CO2)[C@]1(C)O` [Compound 227, reference compound] are 4 µg/mL (≈ 4.61 µM), 4 µg/mL (≈ 4.61 µM) and 32 µg/mL (≈ 36.9 µM).
In the case of `CCC1OC(=O)C(C)(F)C(=O)C(C)C(OC2OC(C)CC(N(C)C)C2O)C2(C)CC(C)C(=O)C(C)C(OCC(=NOCc3ccc(-n4ccc(N)n4)nc3)CO2)C1(C)O` (stereo not drawn) [Example 49], the MIC in the test on H. influenzae (H. influenzae 33929) and in the test with H. influenzae (H. influenzae 49247) was 2 µg/mL (≈ 2.4 µM) each time.
As to `CCC1OC(=O)C(C)C(=O)C(C)C(OC2OC(C)CC(N(C)C)C2O)C2(C)CC(C)C(=O)C(C)C(OCC(=NOCc3ncc(-c4cccc(N)n4)cn3)CO2)C1(C)O` (stereo not drawn) [Example 50], the MIC against H. influenzae (H. influenzae 33929) and in the test on H. influenzae (H. influenzae 49247) was 2 µg/mL (≈ 2.42 µM) each time.
`CCC1OC(=O)C(C)(F)C(=O)C(C)C(OC2OC(C)CC(N(C)C)C2O)C2(C)CC(C)C(=O)C(C)C(OCC(=NOCc3nc(-c4cccc(N)n4)no3)CO2)C1(C)O` (stereo not drawn) [Example 52]: the values for the MIC with H. influenzae (H. influenzae 33929) and in the test on H. influenzae (H. influenzae 49247) were 1 µg/mL (≈ 1.2 µM) and 2 µg/mL (≈ 2.4 µM), respectively.
Taken in the same sequence, the figures for `CCC1OC(=O)C(C)C(=O)C(C)C(OC2OC(C)CC(N(C)C)C2O)C2(C)CC(C)C(=O)C(C)C(OCC(=NOCc3ccc(-c4nc(N)no4)cn3)CO2)C1(C)O` (stereo not drawn) [Example 45] were 2 µg/mL (≈ 2.45 µM) and 1 µg/mL (≈ 1.22 µM).
On to `CC[C@H]1OC(=O)[C@@](C)(F)C(=O)[C@H](C)[C@@H](O[C@@H]2O[C@H](C)C[C@H](N(C)C)[C@H]2O)[C@@]2(C)C[C@@H](C)C(=NC(C)=O)[C@H](C)[C@@H](OC/C(=N\OCc3ccc(-c4csnn4)cc3)CO2)[C@]1(C)O` [Compound 219, reference compound], for which, in the test with H. influenzae, the “MIC H. influenzae 33929” value was determined as 4 µg/mL (≈ 4.57 µM) and the “MIC H. influenzae 49247” value turned out to be 4 µg/mL (≈ 4.57 µM). Besides, the “MIC MRSA 33591” value against MRSA amounted to 32 µg/mL (≈ 36.5 µM).
For the compound `CCC1OC(=O)C(C)C(=O)C(C)C(OC2OC(C)CC(N(C)C)C2O)C2(C)CC(C)C(=O)C(C)C(OCC(=NOCc3coc(-c4cccc(N)n4)n3)CO2)C1(C)O` (stereo not drawn) [Example 39], the MIC with H. influenzae (H. influenzae 33929) and against H. influenzae (H. influenzae 49247) was 1 µg/mL (≈ 1.23 µM) in each case.
For `CCC(=O)N=C1C(C)CC2(C)OCC(=NOCc3cnc(-c4nsc(N)n4)cn3)COC(C1C)C(C)(O)C(CC)OC(=O)C(C)(F)C(=O)C(C)C2OC1OC(C)CC(N(C)C)C1O` (stereo not drawn) [Example 67], the MIC worked out at 4 µg/mL (≈ 4.41 µM) against H. influenzae (H. influenzae 33929) and 2 µg/mL (≈ 2.2 µM) against H. influenzae (H. influenzae 49247).
Taken in the same sequence, the figures for `CCC1OC(=O)C(C)(F)C(=O)C(C)C(OC2OC(C)CC(N(C)C)C2O)C2(C)CC(C)C(=NC(C)=O)C(C)C(OCC(=NOCc3ccn(-c4cccc(N)n4)n3)CO2)C1(C)O` (stereo not drawn) [Example 59] were 2 µg/mL (≈ 2.29 µM) and 2 µg/mL (≈ 2.29 µM).
On to `CCC1OC(=O)C(C)C(=O)C(C)C(OC2OC(C)CC(N(C)C)C2O)C2(C)CC(C)C(=O)C(C)C(OCC(=NOCc3ccc(-c4nc(N)no4)nc3)CO2)C1(C)O` (stereo not drawn) [Example 51], for which the MIC against H. influenzae (H. influenzae 33929) and in the test with H. influenzae (H. influenzae 49247) was 2 µg/mL (≈ 2.45 µM) throughout.
For the compound `CCC1OC(=O)C(C)C(=O)C(C)C(OC2OC(C)CC(N(C)C)C2O)C2(C)CC(C)C(=O)C(C)C(OCC(=NOCc3cnc(-c4nsc(N)n4)cn3)CO2)C1(C)O` (stereo not drawn) [Example 68], the MIC against H. influenzae (H. influenzae 33929) and in the test with H. influenzae (H. influenzae 49247) was 2 µg/mL (≈ 2.4 µM) each time.
Take `CCC(=O)N=C1C(C)CC2(C)OCC(=NOCc3ccn(-c4cccc(N)n4)n3)COC(C1C)C(C)(O)C(CC)OC(=O)C(C)(F)C(=O)C(C)C2OC1OC(C)CC(N(C)C)C1O` (stereo not drawn) [Example 57]: the MIC against H. influenzae (H. influenzae 33929) was 4 µg/mL (≈ 4.5 µM); against H. influenzae (H. influenzae 49247), 2 µg/mL (≈ 2.25 µM).
In the same order, the values of `CCC1OC(=O)C(C)(F)C(=O)C(C)C(OC2OC(C)CC(N(C)C)C2O)C2(C)CC(C)C(=O)C(C)C(OCC(=NOCc3ccc(-c4nc(N)no4)cc3)CO2)C1(C)O` (stereo not drawn) [Example 38] are 2 µg/mL (≈ 2.4 µM) and 4 µg/mL (≈ 4.8 µM).
